This is an account of results in patent US9120787B2, “HIV replication inhibitors” (priority 2011, dated 2015).

What is called IC50 is the midpoint of a concentration-inhibition curve.

A short description of data set [1]: Cytotoxicity by MTS staining in uninfected MAGI-CCR5 cells. In kind it is cell-based. Particulars: human, read-out: TC50. The procedure:
The anti-viral activity of dihydropyrimidines was shown by inhibition of virus replication in MAGI-CCR5 cells. MAGI-CCR5 cells are derived from HeLa-CD4-LTR-β-galactosidase cells. The cells have been engineered to express high levels of CD4 and CCR5 and contain one copy of the HIV-1 LTR promoter driving expression of the β-galactosidase gene upon HIV-1 Tat transactivation. On the day preceding the assay, the cells were plated at 1.0×10^4 cells per well and maintained at 37° C. and 5% CO2 in a humidified incubator. Total cell count and viability was visually assessed using a hemacytometer and trypan blue exclusion. Compounds were evaluated at six concentrations (triplicate wells/concentration). On the day of assay setup, compound dilutions were prepared at two-times (2×) the final concentrations. Media was decanted and wells were replenished with 50 μl of 2× compounds, followed by the addition of 50 μl of diluted virus. Identical uninfected assays were prepared for parallel cytotoxicity testing.

Data set [2] has as its system HIV-1Ba-L. Description: HIV-1Ba-L replication in PBMCs (supernatant RT end-point). The following applies: for TI (TC50/IC50): HIV-1Ba-L in PBMCs; for IC50: Human immunodeficiency virus 1, PBMC, 168 h. The procedure: Evaluation of Dihydropyrimidines vs. HIV-1Ba-L in Peripheral Blood Mononuclear Cells (PBMCs)
Cultures of pooled phytohemagglutinin stimulated peripheral blood mononuclear cells (PBMC) were seeded into a 96-well plate at plating density of 5×10^4 cells/well. Compounds were serially diluted into media in ½-log increments using a high test of […] and […] of each concentration (nine total concentrations). Cells were infected with HIV strains HIV-1Ba-L and NL4-3 at an MOI=0.1. The PBMCs were cultured for seven days in an humidified incubator maintained at 37° C., 5% CO2 atmosphere. At the assay end-point, the supernatant was collected and analyzed for reverse transcriptase activity. For the RT assay, tritiated thymidine triphosphate (3H-TTP, 80 Ci/mmol) was diluted 1:1 dH2O:Ethanol at 1 mCi/ml. Poly rA:oligo dT template:primer was prepared as a stock solution by combining 150 μl poly rA (20 mg/ml) with 0.5 mL oligo dT (20 units/ml) and 5.35 ml sterile dH2O followed by aliquoting (1.0 ml) and storage at −20° C. The RT reaction buffer contained of 125 ml 1.0 M EGTA, 125 ml dH2O, 125 ml 20% Triton X100, 50 ml 1.0 M Tris (pH 7.4), 50 ml 1.0 M DTT, and 40 ml 1.0 M MgCl2. The final reaction mixture was prepared by combining 1 part 3H-TTP, 4 parts dH2O, 2.5 parts poly rA:oligo dT stock and 2.5 parts reaction buffer. To each well, ten microliters of the reaction mixture and 15 μl of virus containing supernatant were added. The plates were incubated at 37° C. for 60 minutes. Following incubation, the reaction volume was spotted onto DE81 filter-mats, washed 5 times for 5 minutes each in a 5% sodium phosphate buffer or 2×SSC. […] were washed 2 times for 1 minute each in distilled water, 2 times for 1 minute each in 70% ethanol, and then dried. Incorporated radioactivity (counts per minute, CPM) was quantified using standard liquid scintillation techniques.

The test system of data set [3] is HIV-1Ba-L. Description: Inhibition of virus replication in MAGI-CCR5 cells (β-galactosidase reporter). In kind it is cell-based. The following applies: HIV-1Ba-L in MAGI-CCR5 cells; for IC50: Human immunodeficiency virus 1, 48 hours, β-galactosidase reporter expression, read-out: IC50. The method, then:
The anti-viral activity of dihydropyrimidines was shown by inhibition of virus replication in MAGI-CCR5 cells. MAGI-CCR5 cells are derived from HeLa-CD4-LTR-β-galactosidase cells. The cells have been engineered to express high levels of CD4 and CCR5 and contain one copy of the HIV-1 LTR promoter driving expression of the β-galactosidase gene upon HIV-1 Tat transactivation. On the day preceding the assay, the cells were plated at 1.0×10^4 cells per well and maintained at 37° C. and 5% CO2 in a humidified incubator. Total cell count and viability was visually assessed using a hemacytometer and trypan blue exclusion.
Compounds were evaluated at six concentrations (triplicate wells/concentration). On the day of assay setup, compound dilutions were prepared at two-times (2×) the final concentrations. Media was decanted and wells were replenished with 50 μl of 2× compounds, followed by the addition of 50 μl of diluted virus. Identical uninfected assays were prepared for parallel cytotoxicity testing.
Evaluation of Dihydropyrimidines vs. HIV-1Ba-L in MAGI-CCR5 Cells

A short description of data set [4]: Cytotoxicity by MTS staining in PBMCs. Type of data set: cell-based. The following applies: human, peripheral blood mononuclear cells (PBMC), MTS staining, read-out: TC50. The method, then: Cytotoxicity was assessed by MTS staining. At assay end-point, PBMC were stained with the addition of […] of the soluble tetrazolium-based dye MTS to determine cell viability and quantify compound toxicity. The plates were incubated 4 to 6 hrs at 37° C. Following incubation, the activity was assessed by reading absorbance values at 490/650 nm.

With `COc1ccc(C2NC(=O)NC(C)=C2c2nc(-c3ccc(C#N)cc3)cs2)cn1` (stereo not drawn) [Example 25], the CC50 at 48 h in data set [1] was not below 100 µM. In addition, in the data set with HIV-1Ba-L [2], the “TI (TC50/IC50)” value is reported as “A (A = TI (TC50/IC50) ≧100.0)” and the IC50 is less than 1 µM. In addition, in the data set on HIV-1Ba-L [3], the “TI (TC50/IC50)” value is reported as “A (A = TI (TC50/IC50) ≧ 100.0)” and the IC50 is less than 1 µM. The CC50 at 7 days in data set [4] was not below 100 µM.

`COc1cncc(C2NC(=O)NC(C)=C2c2nc(-c3ccc(C#N)cc3)cs2)c1` (stereo not drawn) [Example 26]: the CC50 at 48 h in data set [1] is not below 100 µM. In the data set on HIV-1Ba-L [2], the “TI (TC50/IC50)” value is “C (C < 50.0-10.0)” and the IC50 lay in the range of 1 to 5 µM. Also, in the data set with HIV-1Ba-L [3], the “TI (TC50/IC50)” value was “D (D < 10.0)” and the IC50 is 5 to 100 µM. For the same compound, the CC50 at 7 days in data set [4] is not below 100 µM.

With `COc1cccc(C2NC(=O)NC(C)=C2c2nc(-c3ccc(C#N)cc3)cs2)n1` (stereo not drawn) [Example 28], in data set [1], the CC50 at 48 h is not below 100 µM. The “TI (TC50/IC50)” value in the data set on HIV-1Ba-L [2] and in the data set with HIV-1Ba-L [3] was “B (B < 100.0-50.0)” each time. Also, the IC50 in the data set on HIV-1Ba-L [2] and in the data set on HIV-1Ba-L [3] was 1 to 5 µM in each case. In addition, the CC50 at 7 days in data set [4] is not below 100 µM.

Consider `CC1=C(c2nc(-c3ccc(C#N)cc3)cs2)C(c2cccnc2F)NC(=O)N1` (stereo not drawn) [Example 29], for which the CC50 at 48 h in data set [1] is not below 100 µM. In addition, in the data set on HIV-1Ba-L [2], the “TI (TC50/IC50)” value is “A (A = TI (TC50/IC50) ≧100.0)” and the IC50 was less than 1 µM. In the data set on HIV-1Ba-L [3], the “TI (TC50/IC50)” value was “A (A = TI (TC50/IC50) ≧ 100.0)” and the IC50 was less than 1 µM. Besides, the CC50 at 7 days in data set [4] was not below 100 µM.

With `CC1=C(c2nc(-c3ccc(C#N)cc3)cs2)C(c2ccncc2F)NC(=O)N1` (stereo not drawn) [Example 30], the CC50 at 48 h in data set [1] is not below 100 µM. Besides, the “TI (TC50/IC50)” value in the data set on HIV-1Ba-L [2] and with HIV-1Ba-L [3] was “D (D < 10.0)” each time. The IC50 with HIV-1Ba-L [2] and with HIV-1Ba-L [3] was more than 100 µM in each case. Besides, the CC50 at 7 days in data set [4] was not below 100 µM.

As to `CC1=C(c2nc(-c3ccccc3)cs2)C(c2cccc(O)c2)NC(=O)N1` (stereo not drawn) [Example 33], the CC50 at 48 h in data set [1] was not below 100 µM. In the data set on HIV-1Ba-L [2], the “TI (TC50/IC50)” value is listed as “D (D < 10.0)” and the IC50 was 5 to 100 µM. Further, in the data set on HIV-1Ba-L [3], the “TI (TC50/IC50)” value was “D (D < 10.0)” and the concentration for half-maximal inhibition (IC50) lay in the range of 5 to 100 µM. For the same compound, the CC50 at 7 days in data set [4] is 50 to 100 µM.

Take `CC1=C(c2nc(-c3ccc(Br)cc3)cs2)C(c2cccc(O)c2)NC(=O)N1` (stereo not drawn) [Example 35]: in data set [1], the CC50 at 48 h was 50 to 100 µM. Moreover, in the data set on HIV-1Ba-L [2], the “TI (TC50/IC50)” value is recorded as “C (C < 50.0-10.0)” and the IC50 was 1 to 5 µM. In the data set on HIV-1Ba-L [3], the “TI (TC50/IC50)” value is listed as “C (C < 50.0 to 10.0)” and the IC50 is 1 to 5 µM. Also, the CC50 at 7 days in data set [4] fell in the range of 50 to 100 µM.

As to `CC1=C(c2nc(-c3ccc4ccccc4c3)cs2)C(c2cccc(O)c2)NC(=O)N1` (stereo not drawn) [Example 36], the CC50 at 48 h in data set [1] was in the range of 50 to 100 µM. For the same compound, in the data set on HIV-1Ba-L [2], the “TI (TC50/IC50)” value is “D (D < 10.0)” and the IC50 fell in the range of 5 to 100 µM. In addition, in the data set on HIV-1Ba-L [3], the “TI (TC50/IC50)” value is reported as “D (D < 10.0)” and the IC50 fell in the range of 5 to 100 µM. Also, the CC50 at 7 days in data set [4] is less than 50 µM.

Consider `CC1=C(c2nc(-c3cccc(O)c3)cs2)C(c2cccc(O)c2)NC(=O)N1` (stereo not drawn) [Example 38], for which the CC50 at 48 h in data set [1] fell in the range of 50 to 100 µM. Further, in the data set on HIV-1Ba-L [2], the “TI (TC50/IC50)” value is listed as “D (D < 10.0)” and the IC50 is 5 to 100 µM. Moreover, in the data set with HIV-1Ba-L [3], the “TI (TC50/IC50)” value is listed as “D (D < 10.0)” and the IC50 lay in the range of 5 to 100 µM. Besides, the CC50 at 7 days in data set [4] is 50 to 100 µM.
